From patent publication US12201591B2, “Sustained release compositions of endoxifen” (Atossa Therapeutics, Inc., priority 2019, dated 2025)
Where “and” joins values, the source holds several entries; their conditions need not be identical. Identical values can stand only once. Like-named read-outs stand apart in the source and are kept apart here.

What was measured:
[1] = Phase I pharmacokinetic study of (Z)-endoxifen tablet and capsule, single and multiple dose; format: in vivo, human; conditions: for (E)-endoxifen levels in serum and plasma: all the times studied
Description: A total of 24 healthy female subjects aged ≥18 years and ≤65 years (inclusive) at the time of screening were randomly assigned and enrolled into two groups (each group n=12) in double-blinded fashion and received the study drug by once daily oral administration. […] Both groups were dosed in the SAD phase of the study. The safety and PK results from both groups were reviewed to determine if both Groups 1 and 2 were to be dosed in the MAD phase of the study, or if only Group 2 (tablets) were to be dosed in the MAD phase. […] The subjects then received 14 daily doses in the MAD. Subjects were not required to take the drugs with food.
Subjects were admitted to the clinical facility on Day 1 for up to 3 days. […] Following completion of all safety assessments and sampling for PK analyses, subjects were discharged from the clinical facility on Day 2. Days 2 to 25 were study drug free or daily dosing pause. A safety summary and up to day 6 post dose, PK data were analyzed (blindedly) and reviewed prior to initiation of the MAD regimen in one or both groups.
MAD regimen started on Day 26. Depending on the outcome of the safety and PK review, wither […] or both Groups 1 and 2 were to be dosed in the MAD part of the study starting on Day 26. […] Subjects in MAD part of the study commenced daily oral administration of the study drug for 14 consecutive days (Days 26 to 39). Subjects were supplied with study drug and instructed to self-administer each morning on empty stomach.
Day 39 was the last day of study drug administration. On Day 39, each subject returned to the clinical facility prior to dose administration and were confined to the facility until Day 40 to allow for collection of blood for PK and safety assessment. Subjects were discharged on Day 40 and returned for blood collection for PK and safety assessment on study Days 42, 44, and 46.
Safety and PK samples was collected during the daily dosing pause on Days 4, 6, 15, and 22.
MAD: Day 26 pre-dose and on Day 32 pre-dose: safety and PK samples was collected. […] Pharmacokinetic parameters determined using Phoenix WinNonlin 8.1. All times used in the calculations of PK parameters were the actual elapsed time from most recent treatment administration, with the exception of pre-dose data which was given the nominal time of 0.00 hr.

[2] = Safety, tolerability and pharmacokinetics of (Z)-Endoxifen in healthy female volunteers (Protocol AG-1001-AU-001); format: in vivo, human
Description: The safety, tolerability and pharmacokinetics of (Z)-Endoxifen was assessed in healthy female volunteers (Protocol AG-1001-AU-001). Participants were treated with oral (Z)-Endoxifen (1 mg, 2 mg and 4 mg) once daily for a total of fifteen doses (Days 1, and 8-21).
Average concentration at steady state (AUCtau/tau) were compared to published values.

[3] = Phase I study: safety and tolerability of (Z)-endoxifen tablet and capsule; format: in vivo, human
Description: The primary objective of the study was to determine and compare the pharmacokinetics of a single oral dose of a previously studied oral (Z)-endoxifen capsule with a sustained release composition in the form of an enteric coated delayed release (Z)-endoxifen tablet (“tablet”) in healthy female volunteers. […] A secondary objective of the study was to assess the safety and tolerability of each of the oral presentation groups and to assess and compare the side effects associated with (Z)-endoxifen (capsule) or the enteric coated delayed-release (Z)-endoxifen tablet using a questionnaire.
A study diary was provided to each participant for the purpose of recording study drug administration (date and time) and adverse events.
Study assessments included taking the subjects' medical history, including evaluation of any on-study adverse events and concomitant medication use; height and weight; physical examination; periodic vital signs (body temperature, heart rate, respiratory rate, blood pressure); periodic 12-lead ECGs. Laboratory tests included hematology, coagulation, urinalysis, serum chemistry, virology, illicit drug screen, alcohol breath test, and pregnancy test.
Specific assessment to evaluate treatment safety included the following: the frequency and type of adverse events, clinical laboratory testing, 12-lead-ECGs and vital signs. A modified FACTES® scoring questionnaire was used to assess symptomatology.

[4] = Phase 2 clinical trial of oral endoxifen: safety and tolerability; format: in vivo, human; conditions: 4 mg/day, 16-40 days
Description: Secondary effects of orally administered (Z)-endoxifen were also assessed, namely the effect of pre-operative (Z)-endoxifen treatment on the expression levels of estrogen receptor and progesterone receptor. […] Additional exploratory objectives including assessing the effect of pre-operative (Z)-Endoxifen treatment on PCNA (S phase), phospho-Histone H3 (M phase), p16 and p21 (senescence), Beta-Galactosidase (senescence), and TUNEL (apoptosis) markers, and identifying tumor RNA expression changes using RNA sequence.
An initial group of six subjects was selected. Subjects visited the clinical facility once within 2 days prior to commencement of treatment for study assessments. […]
Each subject returned to the clinical facility for safety assessments on a day during the week preceding their scheduled surgery. The expression of Ki-67, ER, progesterone receptor (PgR), and other exploratory markers, was measured in tumor tissue obtained during the mastectomy (or lumpectomy) and compared to the expression of these markers in pre-operative baseline biopsy material obtained prior to commencement of study treatment. […] Ki-67, ER, PgR expression were measured using standard immunopathology techniques, and exploratory markers were measured using established laboratory assays. Endoxifen levels in blood measured in blood drawn prior to dosing on day 14 of study treatment administration. […]

[5] = Forced degradation (acid, base, heat, oxidation); format: physicochemical
[6] = tested on: breast cancer tumor cell proliferation (Ki-67); test: Phase 2 clinical trial of oral endoxifen: Ki-67 in breast cancer tumors; format: in vivo, human
Description: A phase 2 clinical trial of (Z)-endoxifen for treatment of breast cancer was performed. Subjects with invasive breast cancer were administered (Z)-endoxifen orally prior to undergoing mastectomy or lumpectomy. The effect of pre-operative oral (Z)-endoxifen treatment on clinical response measured by Ki-67 expression levels was assessed. Ki-67 expression levels were used as a measure of tumor cell proliferation in the subjects. The purpose of this study was to determine the effect of orally administered endoxifen on breast cancer tumor cell proliferation.
Subjects were selected who had received an invasive breast cancer diagnosis that required a mastectomy or lumpectomy, in which the cancer was Estrogen Receptor (ER) positive and Human Epidermal growth factor Receptor 2 (HER2) negative.
Subjects with ER positive invasive breast cancer that were scheduled for mastectomy or lumpectomy were considered for the study. Subjects consenting to the study were screened within 28 days prior to commencement of the dosing. Potential subjects were asked to consent to have tissue sections obtained from the biopsy material used for their immunopathology diagnosis. The biopsy material was used to determine baseline expression levels for Ki-67, ER, PgR and the exploratory markers.
An initial group of six subjects was selected. Subjects visited the clinical facility once within 2 days prior to commencement of treatment for study assessments. Subjects were supplied with study drug and were asked to self-administer daily. A study diary was provided to each subject for the purpose of recording study drug administration (date and time) and any adverse events. All subjects received an oral daily dose of 4 mg/day (Z)-Endoxifen until the day preceding their scheduled surgery and for a minimum of 14-days. Subjects were instructed to take each dose in the morning in a fasted state, defined as no food at least 8 hours prior to study medication through to one hour following study medication. Subjects were instructed to self-administer (Z)-Endoxifen orally with a full cup (approximately 240 mL) of noncarbonated room temperature water (additional water is permitted, if needed). There are no restrictions related to water intake. Consecutive doses were administered 24 (±2) hours apart. If a scheduled dose was missed, the dose could be taken up to 6 hours after the scheduled dose.
Each subject returned to the clinical facility for safety assessments on a day during the week preceding their scheduled surgery. The expression of Ki-67, ER, progesterone receptor (PgR), and other exploratory markers, was measured in tumor tissue obtained during the mastectomy (or lumpectomy) and compared to the expression of these markers in pre-operative baseline biopsy material obtained prior to commencement of study treatment. Pharmacodynamic exploratory markers including Proliferating cell nuclear antigen (PCNA, S phase), phosphor-histone H3 (M phase), p16 and […] (senescence), beta-galactosidase (senescence), Terminal deoxynucleotidyl transferase dUTP nick end labeling (TUNEL, apoptosis), and RNA sequence were assessed. Ki-67, ER, PgR expression were measured using standard immunopathology techniques, and exploratory markers were measured using established laboratory assays. Endoxifen levels in blood measured in blood drawn prior to dosing on day 14 of study treatment administration. Individual and mean serum and plasma concentrations of Endoxifen were tabulated.

[7] = cited from earlier work
[8] = multiple administration dose phase
[9] = single administration dose phase

CCC(=C(c1ccc(O)cc1)c1ccc(OCCNC)cc1)c1ccccc1 [(E)-endoxifen]
(E)-endoxifen levels in serum and plasma [1, 8]: undetectable
(E)-endoxifen levels in serum and plasma [1, 9]: undetectable

CCC(=C(c1ccc(O)cc1)c1ccc(OCCNC)cc1)c1ccccc1 [(Z)-endoxifen, 4-hydroxy-N-desmethyl-tamoxifen]
% Ratio of Css Study (serum)/Literature (plasma) ([2]; 1 mg dose): 154%
Study Result of Average Serum (Z)-Endoxifen Css ([2]; 1 mg dose): 19.1 ng/mL and 51.1 nM
Cmax and AUC24 hr across the three dose levels ([2]; 1 mg, 2 mg and 4 mg): dose-proportionality
safety signals ([2]; 1 mg, 2 mg and 4 mg once daily, fifteen doses): no clinically significant safety signals
% Ratio of Css Study (serum)/Literature (plasma) ([2]; 2 mg dose): 204%
Study Result of Average Serum (Z)-Endoxifen Css ([2]; 2 mg dose): 38 ng/mL and 101.7 nM
% Ratio of Css Study (serum)/Literature (plasma) ([2]; 4 mg dose): 150%
Study Result of Average Serum (Z)-Endoxifen Css ([2]; 4 mg dose): 85.1 ng/mL and 227.9 nM
half-life ([2]; female, human, serum, oral, 1 mg, 2 mg and 4 mg, read-out: mean half-life (t1/2) by dose level): 42 to 53 h
time to steady state ([2]; once daily dosing): approximately 7 days
commonly occurring adverse events with a relationship of possible or probable ([2]; only reported in participants who received (Z)-Endoxifen): upper respiratory infection, hot flush, abdominal distension, dry mouth and menstruation delayed
tolerability ([2]; single dose and then daily for 14 days, 1 mg, 2 mg and 4 mg): well tolerated
night sweats reported, percent of subjects ([3]; multiple dose administration phase, 2 of 19 subjects): 11%
hot flash reported, percent of subjects ([3]; multiple dose administration phase, 4 of the 18 subjects): 22%
hot flash reported, percent of subjects ([3]; single dose administration phase, 2 of 18 subjects): 11%
Plasma (Z)-endoxifen level ([1]; by Day 26 (600 hours post-dose)): below the detection levels
concentration at 14 days ([1]; female, human, blood, oral, 14 once daily 4 mg doses, read-out: (Z)-endoxifen maintained in the blood): ~13 ng/mL and > 30 nM
mean serum versus time-point matched mean plasma (Z)-endoxifen concentration [1, 8]: approximately 1.2 fold
time to achieve steady state levels of plasma and serum (Z)-endoxifen ([1]; once daily 4 mg doses): approximately 14 days
mean serum versus time-point matched mean plasma (Z)-endoxifen concentration [1, 9]: approximately 1.1 fold
safety or tolerability issues, including vasomotor symptoms [4]: no safety or tolerability issues
% degradation ([5]; Acid: 0.5N HCl for 27 hrs): No degradation
% degradation ([5]; Base: 0.5N NaOH for 27 hrs): 0.12%
% degradation ([5]; Heat: 105° C. for 51 hrs): No degradation
Ki-67% reduction, AVERAGE ([6]; initial results, six subjects, 4 mg/day, average 22 days): 69%
Ki-67 reduction in every patient ([6]; six subjects, 4 mg/day): more than 50%
Ki-67 level after Endoxifen treatment (all patients) ([6]; six subjects, 4 mg/day, 16-40 days): low (low (defined as less than ˜14%))
Ki-67% reduction ([6]; subject R1001): 60%
Post Endoxifen Ki-67% ([6]; subject R1001, 21 days on Endoxifen 4 mg, pre 5%): 2%
Ki-67% reduction ([6]; subject R1002): 60%
Post Endoxifen Ki-67% ([6]; subject R1002, 23 days on Endoxifen 4 mg, pre 20%): 8%
Ki-67% reduction ([6]; subject R1003): 87%
Post Endoxifen Ki-67% ([6]; subject R1003, 17 days on Endoxifen 4 mg, pre 90%): 12%
Ki-67% reduction ([6]; subject R1004): 91%
Post Endoxifen Ki-67% ([6]; subject R1004, 17 days on Endoxifen 4 mg, pre 22%): 2%
Ki-67% reduction ([6]; subject R1005): 60%
Post Endoxifen Ki-67% ([6]; subject R1005, 40 days on Endoxifen 4 mg, pre 25%): 10%
Ki-67% reduction ([6]; subject R1006): 58%
Post Endoxifen Ki-67% ([6]; subject R1006, 16 days on Endoxifen 4 mg, pre 12%): 5%
Ki-67 levels following treatment, all six patients ([6]; subsequent results): below 25%
average reduction in tumor cell proliferation, as measured by Ki-67 ([6]; subsequent results, 22 days of dosing, six subjects, p=0.031): about 74%
Published Literature Result of Average Plasma (Z)-Endoxifen Css ([7]; 1 mg dose): 12.4 ng/mL and 33.1 nM
Published Literature Result of Average Plasma (Z)-Endoxifen Css ([7]; 2 mg dose): 18.6 ng/mL and 49.8 nM
Published Literature Result of Average Plasma (Z)-Endoxifen Css ([7]; 4 mg dose): 56.8 ng/mL and 152.1 nM
Published Literature Result of Average Plasma (Z)-Endoxifen Css ([7]; 8 mg dose): 96.8 ng/mL and 259.2 nM

CC/C(=C(\c1ccc(O)cc1)c1ccc(OCCNC)cc1)c1ccccc1.Cl [Endoxifen Chloride]
(Z)-Endoxifen Plasma ([7]; 20 mg/day, Aromatase Inhibitor Refractory Metastatic Breast Cancer, Goetz et al. 2013): 390 nM
Outcomes ([7]; 20 mg/day, Goetz et al. 2013): Gr 2 hot flash (1
(Z)-Endoxifen Plasma ([7]; 40 mg/day, Aromatase Inhibitor Refractory Metastatic Breast Cancer, Goetz et al. 2013): 660 nM
Outcomes ([7]; 40 mg/day, Goetz et al. 2013): None; Stable disease
(Z)-Endoxifen Plasma ([7]; 60 mg/day, Aromatase Inhibitor Refractory Metastatic Breast Cancer, Goetz et al. 2013): 1,010 nM
Outcomes ([7]; 60 mg/day, Goetz et al. 2013): Gr 4 Triglycerides
(Z)-Endoxifen Plasma ([7]; 80 mg/day, Aromatase Inhibitor Refractory Metastatic Breast Cancer, Goetz et al. 2013): 1,610 nM
Outcomes ([7]; 80 mg/day, Goetz et al. 2013): Gr 2 Hot flashes
(Z)-Endoxifen Plasma ([7]; 100 mg/day, Aromatase Inhibitor Refractory Metastatic Breast Cancer, Goetz et al. 2013): 2,480 nM
Outcomes ([7]; 100 mg/day, Goetz et al. 2013): Gr 2 nausea (1 pt); Gr
(Z)-Endoxifen Plasma ([7]; 120 mg/day, Aromatase Inhibitor Refractory Metastatic Breast Cancer, Goetz et al. 2013): 2,180 nM
Outcomes ([7]; 120 mg/day, Goetz et al. 2013): Gr 2 hypersomnia,
Outcomes: maximum tolerated dose ([7]; 20->160 mg/day, Goetz et al. 2015): not observed. 1 DLT,
(Z)-Endoxifen Plasma ([7]; 160 dose (20->160 mg/day), Goetz et al. 2015): 3,600 nM
